Common to all, as to format: physicochemical
The nature of data set [1]: Dynamic Vapour Sorption (DVS). The note with it: for Solid form by XRPD post DVS: after exposure to varying % RH; for DVS water uptake: between 20-70% RH. The protocol: Dynamic Vapour Sorption (DVS)
Approximately 10 mg of sample was placed into a mesh vapour sorption balance pan and loaded into a DVS-1 dynamic vapour sorption balance by Surface Measurement Systems. The sample was subjected to a ramping profile from 20-90% relative humidity (RH) at 10% increments maintaining the sample at each step until a stable weight had been achieved (99.5% step completion). After completion of the sorption cycle, the sample was dried using the same procedure, but all the way down to 0% RH and finally taken back to the starting point of 20% RH. The weight change during the sorption/desorption cycles were plotted, allowing for the hygroscopic nature of the sample to be determined.

Data set [2] in a line: Thermal analysis (TG/DTA, DSC): onset of degradation. The note with it: TG/DTA (TGA). The protocol:
Thermogravimetric Analysis (TGA)
Approximately, 5 mg of material was accurately weighed into an open aluminium pan and loaded into a simultaneous thermogravimetric/differential thermal analyser (TG/DTA) and held at room temperature. The sample was then heated at a rate of 10° C./min from 25° C. to […] the change in sample weight was recorded along with any differential thermal events (DTA). Nitrogen was used as the purge gas, at a flow rate of 100 cm^3/min.
Differential Scanning calorimetry (DSC)
Approximately, 5 mg of material was weighed into an aluminium DSC pan and sealed non-hermetically with a pierced aluminium lid. The sample pan was then loaded into a Seiko DSC6200 (equipped with a cooler). The sample and reference were heated to ca. 220° C. at a scan rate of 10° C./min and the resulting heat flow response monitored.

Data set [3] in a line: Stability (storage) testing, 1 week, XRPD. The note with it: for Storage testing (solid form by XRPD): ambient light, 40° C./75% RH and 80° C., 1 week. The protocol:
Each potential salt was exposed to environments of 40° C./75% RH, elevated temperature (80° C.) and ambient light (ca. 22° C. in a closed vial), for 1 week to determine stability. Resulting solids were analysed by XRPD to establish if any changes had occurred.

The nature of data set [4]: Thermodynamic solubility (slurry in media of pH 1, 4.5 and 6.8, ca. 48 hours, HPLC; solids by XRPD). The conditions noted are these: for Solid form by XRPD after thermodynamic solubility slurry: pH 1, 4.5, 6.8 media. The protocol: Slurries of each potential salt were created in media of pH 1; 4.5 and 6.8 and shaken for ca. 48 hours. The resulting solution was then analysed by HPLC and the concentration of material dissolved calculated. Remaining solids were analysed by XRPD to determine if any changes had occurred on slurrying.

The nature of data set [5]: Aqueous solubility (slurry in deionised water, 4 and 24 hours, room temperature, HPLC; solids by XRPD). The note with it: for Solid form by XRPD after aqueous solubility slurry: 4 and 24 hours; for Aqueous solubility: room temperature. The protocol: Slurries of each potential salt were created in deionised water and agitated for 4 and 24 hours at room temperature. After both 4 and 24 hours, the resulting solutions were analysed by HPLC and the concentration of material dissolved calculated. Remaining solids were analysed by XRPD to determine if any changes had occurred on slurrying.

Data set [6] in a line: Hydration studies (slurry in acetone:water 3, 5 and 10% water, ca. 48 hours, XRPD). As to the method: Slurries of each potential salt were created in acetone:water mixtures (3, 5 and 10% water) and shaken for ca. 48 hours. The resulting solid was then analysed by XRPD to determine if any changes had occurred on slurrying.
A short description of data set [7]: Salt disproportionation studies (slurry in water, XRPD at 1, 24 & 48 hours). The conditions noted are these: room temperature, 1, 24 & 48 hours. The protocol:
Salt Disproportionation Studies
Each potential salt was slurried in water at room temperature (ca. 22° C.), with the excess solid taken at 1, 24 & 48 hours and analysed by XRPD. The pH of the supernatant was also monitored.

Entries after “also recorded” stand apart in the source; their conditions may differ. Some results are limits rather than exact numbers.

Usually Aqueous solubility stands for how much of the substance goes into solution per volume.

For `C[C@@H]1COC(Nc2ccc3ncnc(Nc4ccc(OCc5nccs5)c(Cl)c4)c3c2)=N1.O=C(O)/C=C\C(=O)O` [maleate salt], in data set [1], the “Solid form by XRPD post DVS” value is “remain unchanged”. Moreover, the DVS water uptake in data set [1] came to 1.95%. In addition, the “DVS water uptake overall” value in data set [1] is on record as 2.84%. Besides, the Onset of degradation result in data set [2] is “ca. 150 °C”. Further, the “Storage testing (solid form by XRPD)” value in data set [3] was “remain unchanged”. Further, in data set [4], the “Solid form by XRPD after thermodynamic solubility slurry” value was “A change in solid form was observed by XRPD from pH1 and pH4.5”. For the same compound, the Thermodynamic solubility is 1213.8 µg/mL in data set [4] (pH1, ca. 48 hours); 3.6 µg/mL in data set [4] (pH 4.5, ca. 48 hours); under 0.445 µg/mL in data set [4] (pH 6.8, ca. 48 hours). In data set [5], the “Solid form by XRPD after aqueous solubility slurry” value is listed as “remained unchanged after slurrying, with a potential increase in amorphous content”. In addition, the values for the Aqueous solubility in data set [5] (4 hours) and in data set [5] (24 hours) were 257 µg/mL and 408.9 µg/mL, respectively. The “Hydration study (solid form after slurrying)” value in data set [6] is recorded as “remained unchanged after slurrying, indicating a low hydration risk”. Besides, the “Salt disproportionation on slurrying in water” value in data set [7] was “no change in form of the maleate salt on slurrying in water at 1 hr and 24 hrs. After 48 hrs the material was observed to be predominantly amorphous”.
`C[C@@H]1COC(Nc2ccc3ncnc(Nc4ccc(OCc5nccs5)c(Cl)c4)c3c2)=N1.O=C(O)CC(=O)O` [malonate salt]: the Hygroscopicity entry in data set [1] (DVS) is recorded as “non-hygroscopic”. The “Solid form by XRPD post DVS” value in data set [1] is reported as “No change to the solid form; also recorded: no change in PXRD post DVS”. This compound also yielded a DVS water uptake in data set [1] of 0.14%. The “DVS water uptake overall” value in data set [1] is reported as 0.35%. For the same compound, the “Storage testing (solid form by XRPD)” value in data set [3] was “remained unchanged”. For the same compound, the “Overall stability in the secondary screen tests” value in data set [3] (conclusion over all tests employed) was “good stability throughout the tests employed”. In addition, the “Solid form by XRPD after thermodynamic solubility slurry” value in data set [4] is “A change in solid form was observed by XRPD from pH1 and pH4.5”. For the same compound, the Thermodynamic solubility amounted to 768.7 µg/mL in data set [4] (pH1, ca. 48 hours); 2.8 µg/mL in data set [4] (pH 4.5, ca. 48 hours); 2 µg/mL in data set [4] (pH 6.8, ca. 48 hours). For the same compound, in data set [5], the “Solid form by XRPD after aqueous solubility slurry” value is on record as “remain unchanged after slurrying”. The values for the Aqueous solubility in data set [5] (4 hours) and in data set [5] (24 hours) were 494.7 µg/mL and 603.6 µg/mL, respectively. For the same compound, the “Hydration study (solid form after slurrying)” value in data set [6] was “remain unchanged after slurrying, indicating a low hydration risk; also recorded: No disproportionation or hydration observed”. Further, the “Salt disproportionation on slurrying in water” value in data set [7] is recorded as “no form change of the malonate salt on slurrying in water; also recorded: No disproportionation or hydration observed”.
As for `C[C@@H]1COC(Nc2ccc3ncnc(Nc4ccc(OCc5nccs5)c(Cl)c4)c3c2)=N1` [varlitinib, (R)—N4-[3-Chloro-4-(thiazol-2-ylmethoxy)-phenyl]-N6-(4-methyl-4,5,-dihydro-oxazol-2-yl)-quinazoline-4,6-diamine], the Onset of degradation entry in data set [2] is “ca. 230 °C”.

The record behind these values is US20210379070A1, “MALONATE SALT OF VARLITINIB” (Aslan Pharmaceuticals PTE LTD, priority 2018, published 2021).
